Article PMC10200060, “Inhibition of DAMP actions in the tumoral microenvironment using lactoferrin-glycyrrhizin conjugate for glioblastoma therapy” (Biomaterials Research, 2023)

Legend:
[1] = biological target: T1, human recombinant HMGB1 protein (Homo sapiens, UniProt P09429); assay: SPR binding affinity against HMGB1; conditions: SPR, HMGB1 immobilized
T1 construct: purchased Abcam
T1 sequence (P09429 1-215): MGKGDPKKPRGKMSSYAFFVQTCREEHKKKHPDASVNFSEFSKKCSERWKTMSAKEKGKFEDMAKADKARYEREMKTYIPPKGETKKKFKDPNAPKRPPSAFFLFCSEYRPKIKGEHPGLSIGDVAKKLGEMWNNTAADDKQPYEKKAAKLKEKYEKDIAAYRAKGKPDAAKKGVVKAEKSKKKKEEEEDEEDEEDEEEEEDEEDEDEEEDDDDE
Protocol: To confirm the binding affinity of Lf-GL to HMGB1, Surface Plasmon Resonance (SPR) was conducted at WoojungBSC (Korea). The Reichert SR7500DC system (Reichert technologies, NA, USA) and Scrubber2 software (Biologic software, FRA) were used, and a CMDH chip (Cat #: 13,206,066, Reichert technologies) was used for immobilization of the human recombinant HMGB1 protein (Abcam). HMGB1 protein was used as a ligand, and the analytes were HMGB1 antibody (Abcam), GL, Lf and Lf-GL conjugate. The immobilization buffer was S.A. (10 × 10^–3 M, pH 4.5), and the running buffer was PBS (pH 7.4). The flow rate of the analyte was 30 μL min^−1. The association and dissociation time were 3 min each, and measurements were conducted at room temperature. Results are expressed in response units (RU) over time.
Fig. S5. Binding affinity against HMGB1. Surface Plasmon Resonance (SPR) was conducted at WoojungBSC (Korea). The Reichert SR7500DC system (Reichert technologies, NA, USA) and Scrubber2 software(Biologic software, FRA) were used and the CMDH chip (Cat #: 13206066, Reichert technologies) was used for immobilization of the human recombinant HMGB1 protein (Abcam). HMGB1 protein was used as ligand and analytes were HMGB1 antibody (Abcam), GL, Lf and Lf-GL conjugate. Immobilization buffer was 10 mM S.A. (pH 4.5) and running buffer was 1× PBS. The flow rate of the analyte was 30 μL min^-1. The association and dissociation time were 3 min each and conducted at room temperature. Results are expressed in response units (RU) over time.

HUVEC = HUVEC co-cultured with U87MG: CCK-8 at basal chamber; type: cell-based, human; conditions: HUVEC/U87MG Transwell co-culture, 100 μM GL equivalent, 24 h
Protocol: (§1) To evaluate the inhibitory effect of Lf-GL on neovascularization in the tumor microenvironment in vitro, U87MG cells were seeded in the Transwell® insert chambers that were 6.5 mm in diameter and had 0.4 μm pore sizes (seeding density: 2.5 × 10^4 cells per well, Corning). HUVECs were seeded in the Transwell basal chamber (seeding density: 5.0 × 10^4 cells per well). GL, Lf, or Lf-GL (100 × 10^–6 M of GL equivalent concentration) were added to the insert chamber, and cells were incubated for 24 h. CCK-8 assay and HMGB1 ELISA were conducted at the basal chamber.

HMGB1 [2] = assay: HUVEC co-cultured with U87MG: HMGB1 ELISA; type: cell-based, human; conditions: HUVEC/U87MG co-culture, 100 μM GL equivalent, 24 h (control 217.8 ± 5.9)
Protocol: as §1

[3] = system: orthotopic GBM (U87MG) mice model; assay: Survival in orthotopic GBM mouse model; type: in vivo, Balb/c nude mice; conditions: i.v. GL equivalent 50 mg kg^−1 (Lf 5 mg kg^−1), 28 days
Protocol: To establish the orthotopic GBM mice model, GBM cells (U87MG, inoculation density: 1.0 × 10^6 cells per 10 μL) were stereotactically injected into the right striatum of Balb/c nude mice. Then, mice were randomly divided into four groups (n = 5): control, GL, Lf, and Lf-GL treated group. […] After four weeks, mice were sacrificed, and organs were harvested and fixed with 4% paraformaldehyde for further analysis.

HMGB1 [4] = assay: Immunofluorescence staining of HMGB1 in GBM tissue; type: in vivo, Balb/c nude mice; conditions: GBM mice, daily i.v. GL equivalent 50 mg kg^−1, 14 days (control 15.3 ± 1.7)
From the text: (§2) After two weeks, mice were sacrificed, and the brains were harvested and fixed with paraformaldehyde (4%). Then, tissue processing was automatically conducted using a Leica TP1020 semi-enclosed Benchtop Tissue Processor (Leica Biosystems, Wetzlar, Hesse, Germany), followed by embedding in paraffin blocks. Paraffin blocks were sliced into 5 μm thick slices using a Leica RM2145 Microtome (Leica Biosystems). Nissl staining was used to stain brain tissue slides with pre-warmed 0.1% Cresyl Violet Stain Solution (Abcam). TUNEL assays were conducted following the manufacturer’s instructions. For immunofluorescence staining; anti-HMGB1 antibody (Abcam), anti-Ki67 antibody (Abcam), anti-CD31 antibody (Abcam), and anti-VEGF antibody (Abcam) were used as primary antibodies, and goat anti-rabbit IgG-H&L Alexa Fluor 488 and goat anti-rabbit IgG H&L Alexa Fluor 647 were used as secondary antibodies, followed by DAPI mounting.

CD31 = assay: Immunofluorescence staining of CD31 in GBM tissue; type: in vivo, Balb/c nude mice; conditions: GBM mice, daily i.v., 14 days (control MFI 14.7 ± 1.4)
From the text: as §2

[5] = system: orthotopic GBM (U87MG) mice model; assay: TUNEL assay of GBM tissue; type: in vivo, Balb/c nude mice; conditions: daily i.v., 14 days (control 28.5 ± 4.8)
From the text: as §2

HMGB1 box A = biological target: HMGB1 box A; design: method as in PMID 17462578; conditions: previously reported; cited from earlier work
[6] = In vivo pharmacokinetics study
[7] = Balb/c, mouse, plasma, iv, 50 mg/kg

CC1(C)[C@@H](O[C@H]2O[C@H](C(=O)O)[C@@H](O)[C@H](O)[C@H]2O[C@@H]2O[C@H](C(=O)O)[C@@H](O)[C@H](O)[C@H]2O)CC[C@]2(C)[C@H]3C(=O)C=C4[C@@H]5C[C@@](C)(C(=O)O)CC[C@]5(C)CC[C@@]4(C)[C@]3(C)CC[C@@H]12 [GL, Glycyrrhizin]
Kd, dissociation rate constant ([1]; PBS pH 7.4, room temperature): 0.00283 ± 3e-05 s⁻¹
kon ([1]; PBS pH 7.4, room temperature, read-out: Ka, association rate constant): 5.3 ± 0.1 M⁻¹ s⁻¹
Kd ([1]; read-out: KD, equilibrium dissociation constant (KD = Kd Ka^−1)): 540 ± 20 µM
Reduction of endothelial cell proliferation (HUVEC): 10.7 ± 2.9%
HMGB1 level in medium (HMGB1 [2]): 190.7 ± 19.0 ng/mL
Additional days of survival versus PBS control [3]: 4 days
Mean fluorescence intensity (MFI) of HMGB1 (HMGB1 [4]): 6.2 ± 0.8
Decrease of MFI of CD31 (CD31): approximately 4 fold
TUNEL MFI [5]: 16.3 ± 2.8
Kd (HMGB1 box A): 170 ± 3 µM
AUC(0-t) [6, 7]: 102 µg·h/mL
Cmax [6, 7]: 254 ± 117 µg/mL
MRT [6, 7]: 4.6 min
Tmax [6, 7]: 1 min
half-life ([6]; Balb/c, mouse, plasma, iv, 50 mg/kg, T1/2, elimination half-life, mice, GL equivalent 50 mg kg^−1, plasma): ~3.8 min
Time after administration until cleared from / remaining in circulation ([6]; mice, i.v., GL equivalent 50 mg kg^−1): 150 min
